In ChEMBL document CHEMBL5335843, “Application of tobramycin benzyl ether as an antibiotic adjuvant capable of sensitizing multidrug-resistant Gram-negative bacteria to rifampicin” (2024):

Key:
Assay type in all cases: functional
Escherichia coli [1] = test: Antibacterial activity against multi-drug resistant Escherichia coli clinical isolate 107115 assessed as inhibition of bacterial growth incubated for 18 hrs by two fold broth microdilution assay
Pseudomonas aeruginosa [2] = test: Antibiotic adjuvant activity against multi-drug resistant Pseudomonas aeruginosa clinical isolate PA101243 assessed as fractional inhibitory concentration index incubated for 18 hrs in presence of minocycline by two fold broth microdilution checkerboard assay
Enterococcus faecium [3] = test: Antibiotic adjuvant activity against Enterococcus faecium 128149 assessed as inhibition of bacterial growth incubated for 18 hrs in presence of rifampicin by two fold broth microdilution checkerboard assay
Staphylococcus aureus [4] = test: Antibiotic adjuvant activity against methicilin-resistant Staphylococcus aureus assessed as rifampicin MIC incubated for 18 hrs in presence of rifampicin by two fold broth microdilution checkerboard assay
Pseudomonas aeruginosa [5] = test: Antibiotic adjuvant activity against multi-drug resistant Pseudomonas aeruginosa clinical isolate PA259 assessed as fold potentiation incubated for 18 hrs in presence of doxycycline by two fold broth microdilution checkerboard assay
Pseudomonas aeruginosa [6] = test: Antibiotic adjuvant activity against multi-drug resistant Pseudomonas aeruginosa clinical isolate PA259 assessed as inhibition of bacterial growth incubated for 18 hrs in presence of doxycycline by two fold broth microdilution checkerboard assay
Enterococcus faecium [7] = test: Antibiotic adjuvant activity against Enterococcus faecium 114278 assessed as fold potentiation incubated for 18 hrs in presence of rifampicin by two fold broth microdilution checkerboard assay
Escherichia coli [8] = test: Antibiotic adjuvant activity against Escherichia coli ATCC 25922 assessed as fold increase in MIC incubated for 18 hrs in presence of rifampicin and CAMHB Mg2+ media by two fold broth microdilution checkerboard assay
Pseudomonas aeruginosa [9] = test: Antibiotic adjuvant activity against multi-drug resistant Pseudomonas aeruginosa clinical isolate 114228 assessed as rifampicin MIC incubated for 18 hrs in presence of Rifampicin by two fold broth microdilution checkerboard assay
Pseudomonas aeruginosa [10] = test: Antibiotic adjuvant activity against multi-drug resistant Pseudomonas aeruginosa clinical isolate PA262 assessed as fold potentiation incubated for 18 hrs in presence of minocycline by two fold broth microdilution checkerboard assay
Pseudomonas aeruginosa [11] = test: Antibiotic adjuvant activity against multi-drug resistant Pseudomonas aeruginosa clinical isolate PA101243 assessed as fold potentiation incubated for 18 hrs in presence of minocycline by two fold broth microdilution checkerboard assay
Acinetobacter baumannii [12] = test: Antibiotic adjuvant activity against multi-drug resistant Acinetobacter baumannii clinical isolate AB031 assessed as rifampicin MIC incubated for 18 hrs in presence of Rifampicin by two fold broth microdilution checkerboard assay
Staphylococcus aureus [13] = test: Antibacterial activity against methicilin-resistant Staphylococcus aureus assessed as inhibition of bacterial growth incubated for 18 hrs by two fold broth microdilution assay
Acinetobacter baumannii [14] = test: Antibacterial activity against multi-drug resistant Acinetobacter baumannii clinical isolate 92247 assessed as inhibition of bacterial growth incubated for 18 hrs by two fold broth microdilution assay
Escherichia coli [15] = test: Antibiotic adjuvant activity against multi-drug resistant Escherichia coli clinical isolate 94393 assessed as fold potentiation incubated for 18 hrs in presence of Rifampicin by two fold broth microdilution checkerboard assay
Pseudomonas aeruginosa [16] = test: Antibiotic adjuvant activity against Pseudomonas aeruginosa PAO1 assessed as fold potentiation incubated for 18 hrs in presence of rifampicin and CAMHB Mg2+ media by two fold broth microdilution checkerboard assay
Acinetobacter baumannii [17] = test: Antibacterial activity against multi-drug resistant Acinetobacter baumannii clinical isolate AB031 assessed as inhibition of bacterial growth incubated for 18 hrs by two fold broth microdilution assay
Acinetobacter baumannii [18] = test: Antibiotic adjuvant activity against multi-drug resistant Acinetobacter baumannii clinical isolate 92247 assessed as fold potentiation incubated for 18 hrs in presence of Rifampicin by two fold broth microdilution checkerboard assay
Pseudomonas aeruginosa [19] = test: Antibiotic adjuvant activity against multi-drug resistant Pseudomonas aeruginosa clinical isolate PA262 assessed as inhibition of bacterial growth incubated for 18 hrs in presence of doxycycline by two fold broth microdilution checkerboard assay
Pseudomonas aeruginosa [20] = test: Antibiotic adjuvant activity against multi-drug resistant Pseudomonas aeruginosa clinical isolate PA114228 assessed as doxycycline MIC incubated for 18 hrs in presence of doxycycline by two fold broth microdilution checkerboard assay
Acinetobacter baumannii [21] = test: Antibiotic adjuvant activity against Acinetobacter baumannii ATCC 17978 assessed as fold potentiation at 16 ug/ml incubated for 18 hrs in presence of rifampicin and 25 % FBS media by two fold broth microdilution checkerboard assay; conditions: dose 16 µg/ml
Acinetobacter baumannii [22] = test: Antibiotic adjuvant activity against Acinetobacter baumannii ATCC 17978 assessed as fold potentiation incubated for 18 hrs in presence of rifampicin and CAMHB Mg2+ media by two fold broth microdilution checkerboard assay
Escherichia coli [23] = test: Antibiotic adjuvant activity against multi-drug resistant Escherichia coli clinical isolate EC94474 assessed as doxycycline MIC incubated for 18 hrs in presence of doxycycline by two fold broth microdilution checkerboard assay
Staphylococcus aureus [24] = test: Antibiotic adjuvant activity against methicilin-resistant Staphylococcus aureus assessed as inhibition of bacterial growth incubated for 18 hrs in presence of rifampicin by two fold broth microdilution checkerboard assay
Escherichia coli [25] = test: Antibiotic adjuvant activity against Escherichia coli ATCC 25922 assessed as fold potentiation incubated for 18 hrs in presence of rifampicin and CAMHB Na+ media by two fold broth microdilution checkerboard assay
Enterococcus faecium [26] = test: Antibiotic adjuvant activity against Enterococcus faecium 128149 assessed as fold potentiation incubated for 18 hrs in presence of rifampicin by two fold broth microdilution checkerboard assay
Pseudomonas aeruginosa [27] = test: Antibacterial activity against Pseudomonas aeruginosa PAO1 assessed as inhibition of bacterial growth incubated for 18 hrs by two fold broth microdilution assay
Acinetobacter baumannii [28] = test: Antibiotic adjuvant activity against multi-drug resistant Acinetobacter baumannii clinical isolate 92247 assessed as fractional inhibitory concentration index incubated for 18 hrs in presence of Rifampicin by two fold broth microdilution checkerboard assay
Acinetobacter baumannii [29] = test: Antibiotic adjuvant activity against Acinetobacter baumannii ATCC 17978 assessed as fold potentiation incubated for 18 hrs in presence of novobiocin by two fold broth microdilution checkerboard assay
Pseudomonas aeruginosa [30] = test: Antibiotic adjuvant activity against multi-drug resistant Pseudomonas aeruginosa clinical isolate PA114228 assessed as minocycline MIC incubated for 18 hrs in presence of minocycline by two fold broth microdilution checkerboard assay
Enterococcus faecium [31] = test: Antibacterial activity against Enterococcus faecium 128149 assessed as inhibition of bacterial growth incubated for 18 hrs by two fold broth microdilution assay
Escherichia coli [32] = test: Antibiotic adjuvant activity against multi-drug resistant Escherichia coli clinical isolate EC107115 assessed as inhibition of bacterial growth incubated for 18 hrs in presence of minocycline by two fold broth microdilution checkerboard assay
Staphylococcus aureus [33] = test: Antibiotic adjuvant activity against methicilin-resistant Staphylococcus aureus assessed as fold potentiation incubated for 18 hrs in presence of rifampicin by two fold broth microdilution checkerboard assay
Pseudomonas aeruginosa [34] = test: Antibiotic adjuvant activity against multi-drug resistant Pseudomonas aeruginosa clinical isolate PA262 assessed as rifampicin MIC incubated for 18 hrs in presence of Rifampicin by two fold broth microdilution checkerboard assay
Escherichia coli [35] = test: Antibacterial activity against multi-drug resistant Escherichia coli clinical isolate 94474 assessed as inhibition of bacterial growth incubated for 18 hrs by two fold broth microdilution assay
Pseudomonas aeruginosa [36] = test: Antibiotic adjuvant activity against multi-drug resistant Pseudomonas aeruginosa clinical isolate 114228 assessed as fractional inhibitory concentration index incubated for 18 hrs in presence of Rifampicin by two fold broth microdilution checkerboard assay
Pseudomonas aeruginosa [37] = test: Antibiotic adjuvant activity against multi-drug resistant Pseudomonas aeruginosa clinical isolate PA264 assessed as minocycline MIC incubated for 18 hrs in presence of minocycline by two fold broth microdilution checkerboard assay

## Cl.NC[C@H]1O[C@H](O[C@H]2[C@H](OCc3ccccc3)[C@@H](O[C@H]3O[C@H](COCc4ccccc4)[C@@H](OCc4ccccc4)[C@H](N)[C@H]3OCc3ccccc3)[C@H](N)C[C@@H]2N)[C@H](N)C[C@@H]1OCc1ccccc1
Escherichia coli [1]
  MIC: 32 µg/mL
Pseudomonas aeruginosa [2]
  fractional inhibitory concentration index (FICI): 1.063
Enterococcus faecium [3]
  MIC: 8 µg/mL
Staphylococcus aureus [4]
  MIC: 256 µg/mL
Pseudomonas aeruginosa [5]
  fold change (FC): 1
Pseudomonas aeruginosa [6]
  MIC: 8 µg/mL
Enterococcus faecium [7]
  fold change (FC): 1
Escherichia coli [8]
  fold change (FC): >=2
Pseudomonas aeruginosa [9]
  MIC: 16 µg/mL
Pseudomonas aeruginosa [10]
  fold change (FC): 1
Pseudomonas aeruginosa [11]
  fold change (FC): 1
Acinetobacter baumannii [12]
  MIC: 2 ng/mL
Staphylococcus aureus [13]
  MIC: 16 µg/mL
Acinetobacter baumannii [14]
  MIC: 32 µg/mL
Escherichia coli [15]
  fold change (FC): 1
Pseudomonas aeruginosa [16]
  fold change (FC): 1
Acinetobacter baumannii [17]
  MIC: 32 µg/mL
Acinetobacter baumannii [18]
  fold change (FC): 512
Pseudomonas aeruginosa [19]
  MIC: 8 µg/mL
Pseudomonas aeruginosa [20]
  MIC: > 128 µg/mL
Acinetobacter baumannii [21]
  fold change (FC): 32
Acinetobacter baumannii [22]
  fold change (FC): 16
Escherichia coli [23]
  MIC: 8 µg/mL
Staphylococcus aureus [24]
  MIC: 4 µg/mL
Escherichia coli [25]
  fold change (FC): 512
Enterococcus faecium [26]
  fold change (FC): 1
Pseudomonas aeruginosa [27]
  MIC: 64 µg/mL
Acinetobacter baumannii [28]
  fractional inhibitory concentration index (FICI): 0.252
Acinetobacter baumannii [29]
  fold change (FC): 2048
Pseudomonas aeruginosa [30]
  MIC: 128 µg/mL
Enterococcus faecium [31]
  MIC: 16 µg/mL
Escherichia coli [32]
  MIC: 8 µg/mL
Staphylococcus aureus [33]
  fold change (FC): 1
Pseudomonas aeruginosa [34]
  MIC: 512 µg/mL
Escherichia coli [35]
  MIC: 32 µg/mL
Pseudomonas aeruginosa [36]
  fractional inhibitory concentration index (FICI): 1.125
Pseudomonas aeruginosa [37]
  MIC: 16 µg/mL
